Measured values: US20210261642A1, “SOLUBILITY OF GLP-1 PEPTIDE” (Novo Nordisk A/S, priority 2017, published 2021)
Converted amounts (≈) assume the structure as drawn. Like-named read-outs stand apart in the source and are kept apart here.

Assay: Assay (I): Determination of Solubility (96-well plate, pH 3.0-11.0, organic solvent 0-70% w/w, UV absorption at 280 nm)
Assay type: physicochemical
Conditions: for GLP-1 peptide concentration: Method 2 (precipitation), 5° C.; for solubility thermodynamic at 24 h: read-out: Peptide concentration after 24 h
Method: Assay (I): Determination of Solubility
96-Well Plate Preparation
96-well plates containing target peptide in a solid form were prepared in one of two ways:
Method 1 (evaporation): Addition of 100 μl stock solution of said peptide at a concentration of 4-6 mg/ml to each well of a 96-well half area plate (150 μl well size). Subsequently the solvent was evaporated by applying a vacuum until the solvent was completely removed.
Method 2 (precipitation): Addition of a certain volume of a stock solution of said peptide containing to each well of a 96-well half area plate followed by the addition of a certain volume of concentrated phosphoric acid to obtain a pH of 4.6 followed by addition of a certain volume of ethanol resulting in a final ethanol concentration of 20% v/v. Subsequently the plate was stored at 4° C. for 1 h and then centrifuged at 4,000 rpm for 20 min. Finally the supernatant was removed. The concentration of the stock solution was chosen in a way that the final amount of peptide after supernatant removal was >0.4 mg per well.
In both cases the stock solution was prepared by adding de-ionized water to a certain amount of powder of said peptide followed by a stepwise addition of small amounts of a concentrated sodium hydroxide solution until said peptide was completely in solution.
To determine solubility of a target peptide at different pH and organic solvent concentrations, two different buffer systems were used in independent experiments to cover the whole range from pH 3.0 to pH 11.0. Buffer system 1 covers pH 3.0-7.5 and buffer system 2 covers pH 7.5-11.0. For each buffer system 96 different solvent compositions were premixed in the following way: • 1. A low pH buffer (adjusted to either pH 3.0 or pH 7.5) and a high pH buffer (adjusted to either pH 7.5 or pH 11.0) were mixed at 8 different ratios to obtain values between pH 3.0 and pH 7.5 or pH 7.5 and pH 11.0, respectively. The total volume after mixing was 300 μl. • 2. 12 different amounts of organic solvent were then added to these buffers to obtain organic solvent (e.g. ethanol) concentrations between 0 and 70% w/w. • 3. Water was then added to obtain a total weight of 1.0 g of solvent in each well.
After preparing the 96 different solvent systems, 100 μl of each system was transferred to the 96-well plate containing the solid form of the target peptide (prepared as described in the section “96-well plate preparation”). The plate was then stored at a given temperature (between 5° C. and 70° C.) for a given time on a rotating shaker set to 400 rpm. At regular time intervals the plate was centrifuged (4,000 rpm for 10 min) and a 10 μl sample was taken from each well. The samples were then analysed by UV absorption at 280 nm for peptide quantification. Peptide concentration results are given as UV absorption at 280 nm of the sample subtracted UV absorption at 280 nm of a well comprising 10 μl water.
The buffers used were as follows: • Buffer system 1 (for the pH range from pH 3.0-7.5)
• Buffer system 2 (for the pH ranae from pH 7.5-11.0)
Solubility of liraglutide was determined using Assay (I) described herein. Liraglutide was prepared using Method 1 (evaporation) or Method 2 (precipitation) as described in subsection “96-well plate preparation”.

- GLP-1 peptide concentration (MeCN 63.6% w/w, pH 10.00, 5 min, before removal of outliers): 0.4 mg/mL
- GLP-1 peptide concentration (MeCN 63.6% w/w, pH 10.00, 180 min, after removal of outliers): 2.9 mg/mL
- GLP-1 peptide concentration (MeCN 63.6% w/w, pH 10.00, 180 min, before removal of outliers): 2.9 mg/mL
- GLP-1 peptide concentration (MeCN 63.6% w/w, pH 10.00, 24 h, after removal of outliers): 1.0 mg/mL
- GLP-1 peptide concentration (MeCN 63.6% w/w, pH 10.00, 24 h, before removal of outliers): 1.0 mg/mL
- GLP-1 peptide concentration (MeCN 63.6% w/w, pH 10.50, 5 min, after removal of outliers): 0.6 mg/mL
- GLP-1 peptide concentration (MeCN 63.6% w/w, pH 10.50, 5 min, before removal of outliers): 0.6 mg/mL
- GLP-1 peptide concentration (MeCN 63.6% w/w, pH 10.50, 180 min, after removal of outliers): 3.4 mg/mL
- GLP-1 peptide concentration (MeCN 63.6% w/w, pH 10.50, 180 min, before removal of outliers): 3.4 mg/mL
- GLP-1 peptide concentration (MeCN 63.6% w/w, pH 10.50, 24 h, after removal of outliers): 1.3 mg/mL
- GLP-1 peptide concentration (MeCN 63.6% w/w, pH 10.50, 24 h, before removal of outliers): 1.3 mg/mL
- GLP-1 peptide concentration (MeCN 63.6% w/w, pH 11.00, 5 min, after removal of outliers): 0.5 mg/mL
- GLP-1 peptide concentration (MeCN 63.6% w/w, pH 11.00, 5 min, before removal of outliers): 0.5 mg/mL
- GLP-1 peptide concentration (MeCN 63.6% w/w, pH 11.00, 180 min, after removal of outliers): 3.2 mg/mL
- GLP-1 peptide concentration (MeCN 63.6% w/w, pH 11.00, 180 min, before removal of outliers): 3.2 mg/mL
- GLP-1 peptide concentration (MeCN 63.6% w/w, pH 11.00, 24 h, after removal of outliers): 1.0 mg/mL
- GLP-1 peptide concentration (MeCN 63.6% w/w, pH 11.00, 24 h, before removal of outliers): 1.0 mg/mL
- GLP-1 peptide concentration (MeCN 70.0% w/w, pH 7.50, 5 min, before removal of outliers): 0.3 mg/mL
- GLP-1 peptide concentration (MeCN 70.0% w/w, pH 7.50, 180 min, before removal of outliers): 0.7 mg/mL
- GLP-1 peptide concentration (MeCN 70.0% w/w, pH 7.50, 24 h, before removal of outliers): 1.6 mg/mL
- GLP-1 peptide concentration (MeCN 70.0% w/w, pH 8.00, 5 min, after removal of outliers): 0.4 mg/mL
- GLP-1 peptide concentration (MeCN 70.0% w/w, pH 8.00, 5 min, before removal of outliers): 0.4 mg/mL
- GLP-1 peptide concentration (MeCN 70.0% w/w, pH 8.00, 180 min, after removal of outliers): 1.0 mg/mL
- GLP-1 peptide concentration (MeCN 70.0% w/w, pH 8.00, 180 min, before removal of outliers): 1.0 mg/mL
- GLP-1 peptide concentration (MeCN 70.0% w/w, pH 8.00, 24 h, after removal of outliers): 2.5 mg/mL
- GLP-1 peptide concentration (MeCN 70.0% w/w, pH 8.00, 24 h, before removal of outliers): 2.5 mg/mL
- GLP-1 peptide concentration (MeCN 70.0% w/w, pH 8.50, 5 min, after removal of outliers): 0.4 mg/mL
- GLP-1 peptide concentration (MeCN 70.0% w/w, pH 8.50, 5 min, before removal of outliers): 0.4 mg/mL
- GLP-1 peptide concentration (MeCN 70.0% w/w, pH 8.50, 180 min, after removal of outliers): 1.4 mg/mL
- GLP-1 peptide concentration (MeCN 70.0% w/w, pH 8.50, 180 min, before removal of outliers): 1.4 mg/mL
- GLP-1 peptide concentration (MeCN 70.0% w/w, pH 8.50, 24 h, after removal of outliers): 3.3 mg/mL
- GLP-1 peptide concentration (MeCN 70.0% w/w, pH 8.50, 24 h, before removal of outliers): 3.3 mg/mL
- GLP-1 peptide concentration (MeCN 70.0% w/w, pH 9.00, 5 min, after removal of outliers): 0.4 mg/mL
- GLP-1 peptide concentration (MeCN 70.0% w/w, pH 9.00, 5 min, before removal of outliers): 0.4 mg/mL
- GLP-1 peptide concentration (MeCN 70.0% w/w, pH 9.00, 180 min, after removal of outliers): 1.5 mg/mL
- GLP-1 peptide concentration (MeCN 70.0% w/w, pH 9.00, 180 min, before removal of outliers): 1.5 mg/mL
- GLP-1 peptide concentration (MeCN 70.0% w/w, pH 9.00, 24 h, after removal of outliers): >4.0 mg/mL
- GLP-1 peptide concentration (MeCN 70.0% w/w, pH 9.00, 24 h, before removal of outliers): >4.0 mg/mL
- GLP-1 peptide concentration (MeCN 70.0% w/w, pH 9.50, 5 min, after removal of outliers): 0.5 mg/mL
- GLP-1 peptide concentration (MeCN 70.0% w/w, pH 9.50, 5 min, before removal of outliers): 0.5 mg/mL
- GLP-1 peptide concentration (MeCN 70.0% w/w, pH 9.50, 180 min, before removal of outliers): 1.9 mg/mL
- GLP-1 peptide concentration (MeCN 70.0% w/w, pH 9.50, 24 h, before removal of outliers): >4.0 mg/mL
- solubility thermodynamic at 24 h (aqueous buffer / organic solvent mixture, pH 3.1, aqueous buffer, DMF 0.0% w/w, pH 3.1, RT, Method 1 (evaporation)): 300 µg/mL (≈ 80 µM)
- solubility thermodynamic at 24 h (aqueous buffer / organic solvent mixture, pH 4.8, aqueous buffer, DMF 0.0% w/w, pH 4.8, RT, Method 1 (evaporation)): 200 µg/mL (≈ 53.3 µM)
- solubility thermodynamic at 24 h (aqueous buffer / organic solvent mixture, pH 5.8, aqueous buffer, DMF 0.0% w/w, pH 5.8, RT, Method 1 (evaporation)): 1500 µg/mL (≈ 400 µM)
- solubility thermodynamic at 24 h (aqueous buffer / organic solvent mixture, pH 6.7, aqueous buffer, DMF 0.0% w/w, pH 6.7, RT, Method 1 (evaporation)): 2200 µg/mL (≈ 586 µM)
- solubility thermodynamic at 24 h (pH 3, aqueous buffer, MeCN 0.0% w/w, pH 3.0, RT, Method 1): 100 µg/mL (≈ 26.7 µM)
- solubility thermodynamic at 24 h (pH 3.6, aqueous buffer, MeCN 0.0% w/w, pH 3.6, RT, Method 1): 100 µg/mL (≈ 26.7 µM)
- solubility thermodynamic at 24 h (pH 4.9, aqueous buffer, MeCN 0.0% w/w, pH 4.9, 5° C., Method 1): 100 µg/mL (≈ 26.7 µM)
- solubility thermodynamic at 24 h (pH 6.2, aqueous buffer, MeCN 0.0% w/w, pH 6.2, 5° C., Method 1): 100 µg/mL (≈ 26.7 µM)
- solubility thermodynamic at 24 h (pH 6.2, aqueous buffer, MeCN 0.0% w/w, pH 6.2, RT, Method 1): 500 µg/mL (≈ 133 µM)
- solubility thermodynamic at 24 h (premixed buffer/organic solvent/water solvent system, pH 4.3, aqueous buffer, MeCN 0.0% w/w, pH 4.3, 5° C., Method 1): 200 µg/mL (≈ 53.3 µM)
Structure (SMILES): CCCCCCCCCCCCCCCC(=O)N[C@@H](CCC(=O)NCCCC[C@H](NC(=O)[C@H](C)NC(=O)[C@H](C)NC(=O)[C@H](CCC(N)=O)NC(=O)CNC(=O)[C@H](CCC(=O)O)NC(=O)[C@H](CC(C)C)NC(=O)[C@H](Cc1ccc(O)cc1)NC(=O)[C@H](CO)NC(=O)[C@H](CO)NC(=O)[C@@H](NC(=O)[C@H](CC(=O)O)NC(=O)[C@H](CO)NC(=O)[C@@H](NC(=O)[C@H](Cc1ccccc1)NC(=O)[C@@H](NC(=O)CNC(=O)[C@H](CCC(=O)O)NC(=O)[C@H](C)NC(=O)[C@@H](N)Cc1cnc[nH]1)[C@@H](C)O)[C@@H](C)O)C(C)C)C(=O)N[C@@H](CCC(=O)O)C(=O)N[C@@H](Cc1ccccc1)C(=O)N[C@H](C(=O)N[C@@H](C)C(=O)N[C@@H](Cc1c[nH]c2ccccc12)C(=O)N[C@@H](CC(C)C)C(=O)N[C@H](C(=O)N[C@@H](CCCNC(=N)N)C(=O)NCC(=O)N[C@@H](CCCNC(=N)N)C(=O)NCC(=O)O)C(C)C)[C@@H](C)CC)C(=O)O [liraglutide, Arg34,Lys26-(N-epsilon-(gamma-L-glutamyl(N-alfa-hexadecanoyl)))-GLP-1(7-37)]
